*1 amine or outer side, *2 acyl side, *3 side chain or, on linkers, in order; H or OH if unused. Where a SMILES comes first, the peptide text is derived from it. Bridges are numbered along the chain shown (N, C = ends). [ ]: non-standard residue; d: D form. The star is where a group is joined. Leu(3R-O(AcLeu(3R-OH))) = CC(=O)N[C@H](C(=O)O[C@H](C(C)C)[C@H](N)C(=O)O)[C@H](O)C(C)C; Leu(3R-OH,Nα-propionyl) = CCC(=O)N[C@H](C(=O)*)[C@H](O)C(C)C; X1 = CC(C)[C@@H](O[*:3])[C@H](N[*:1])C(=O)[*:2]; NMeT = CN[C@H](C(=O)O)[C@@H](C)O; dPhLac = O=C(O)[C@H](O)Cc1ccccc1; NMeA = CN[C@@H](C)C(=O)O; NMeDha = C=C(NC)C(=O)O
Experiments:
[1] = Displacement of [3H]PSB-15900 from Gq (unknown origin) expressed in platelet cell membranes; parameters: species or system Homo sapiens
[2] = Inhibition of Gq (unknown origin) coupled with muscarinic M1 receptor expressed in CHO cells assessed as reduction in carbachol-induced IP1 accumulation pretreated for 1 hr followed by carbachol addition measured after 35 mins by HTRF assay; assay type: cell-based

Row | Structure (SMILES) | pIC50 [1] | IC50 [2] [nM]
1 | C=C1C(=O)N[C@@H](C)C(=O)N(C)[C@@H](C)C(=O)N[C@@H]([C@H](OC(=O)[C@@H](NC(=O)CC)[C@H](O)C(C)C)C(C)C)C(=O)N(C)[C@@H]([C@@H](C)OC)C(=O)O[C@H](C(C)C)[C@H](NC(=O)CCO)C(=O)O[C@H](Cc2ccccc2)C(=O)N1C | 7.79 to 8.64 | 2.29 to 16.2
2 | C=C1C(=O)N[C@@H](C)C(=O)N(C)[C@@H](C)C(=O)N[C@@H]([C@H](OC(=O)[C@@H](NC(C)=O)[C@H](O)C(C)C)C(C)C)C(=O)N(C)[C@@H]([C@@H](C)OC)C(=O)O[C@H](C(C)C)[C@H](NC(C)=O)C(=O)O[C@H](Cc2ccccc2)C(=O)N1C (Ac-[X1][dPhLac][NMeDha]A[NMeA][Leu(3R-O(AcLeu(3R-OH)))][NMeT](Me); ester 1-C) | 7.79 to 8.64 | 2.29 to 16.2
3 | C=C1C(=O)N[C@@H](C)C(=O)N(C)[C@@H](C)C(=O)N[C@@H]([C@H](OC(=O)[C@@H](NC(=O)CC)[C@H](O)C(C)C)C(C)C)C(=O)N(C)[C@@H]([C@@H](C)OC)C(=O)O[C@H](C(C)C)[C@H](NC(C)=O)C(=O)O[C@H](Cc2ccccc2)C(=O)N1C (Ac-[X1][dPhLac][NMeDha]A[NMeA][X1](Leu(3R-OH,Nα-propionyl))[NMeT](Me); ester 1-C) | 7.79 to 8.64 | 2.29 to 16.2

— ChEMBL document CHEMBL4145635, “Applying Molecular Networking for the Detection of Natural Sources and Analogues of the Selective Gq Protein Inhibitor FR900359” (J Nat Prod, 2018)
